{"source": "paper PMC6675714", "about": "(Cancer Medicine, 2019)", "origin": "cited, not measured here", "key": {"[1]": {"tested_on": "Caki‐1 tumor", "conditions": "cited from earlier work; for T/C (tumor growth): same xenograft mice model (Caki‐1, NMRI:nu/nu)"}, "[2]": {"tested_on": "advanced stages of CCRCC", "conditions": "chemo‐monotherapies; cited from earlier work"}, "[3]": {"tested_on": "H‐Ras/Raf‐1 interaction", "parameters": "method as in PMID 28959398", "conditions": "cited from earlier work"}, "[4]": {"tested_on": "A431 tumor", "parameters": "method as in PMID 28959398", "conditions": "A431 tumor‐bearing female BALB/cA.Cg‐Foxn1^nu/CrINarI; cited from earlier work"}, "[5]": {"conditions": "Caki‐1 tumor‐bearing female NMRI:nu/nu mice"}}, "note": "Where two headings read alike, the source gives them in different places."}
{"compound": "COc1ccc(C[c-]2cccc2)cc1.COc1ccc(C[c-]2cccc2)cc1.[Cl][V+2][Cl]", "note": "[Vanadocene Y]", "values": [{"measurement": "Side effects", "setting": "[1]; [5]", "result": "no severe side effects"}]}
{"compound": "CC(=O)OCC1OC([S][Au-][c]2n(Cc3ccccc3)c(-c3ccccc3)c(-c3ccccc3)[n+]2Cc2ccccc2)C(OC(C)=O)C(OC(C)=O)C1OC(C)=O", "note": "(centres unmarked) [NHC‐AuSR]", "values": [{"measurement": "T/C (tumor growth)", "setting": "[1]", "result": 47, "unit": "%"}, {"measurement": "Side effects", "setting": "[1]; same xenograft mice model", "result": "no severe side effects"}, {"measurement": "ki‐67 or CD31 markers", "setting": "[1]; same xenograft mice model", "result": "no decrease"}]}
{"compound": "CCN(CC)c1ccc(C[c-]2cccc2)cc1.CCN(CC)c1ccc(C[c-]2cccc2)cc1.[Cl][Ti+2][Cl]", "note": "[Titanocene Y*]", "values": [{"measurement": "Side effects", "setting": "[1]; [5]", "result": "no severe side effects"}, {"measurement": "Reduction of proliferation marker ki‐67", "setting": "[1]; Caki‐1 xenograft", "result": 21, "unit": "%"}, {"measurement": "Vascularization", "setting": "[1]; Caki‐1 xenograft", "result": "decreased vascularization"}, {"measurement": "Weight loss", "setting": "[1]; Caki‐1 xenograft", "result": "dose‐dependent weight loss"}]}
{"compound": "O=c1[nH]cc(F)c(=O)[nH]1", "note": "[5‐FU]", "values": [{"measurement": "Response rate", "setting": "[2]", "result": "~20", "unit": "%"}, {"measurement": "Survival", "setting": "[2]", "result": 15, "unit": "months"}]}
{"compound": "CCCCCOC(=O)Nc1nc(=O)n([C@@H]2O[C@H](C)[C@@H](O)[C@H]2O)cc1F", "note": "[capecitabine]", "values": [{"measurement": "Response rate", "setting": "[2]", "result": "~20", "unit": "%"}, {"measurement": "Survival", "setting": "[2]", "result": 15, "unit": "months"}]}
{"compound": "[Cl][Au-][c]1n(Cc2ccccc2)c(-c2ccccc2)c(-c2ccccc2)[n+]1Cc1ccccc1", "note": "[NHC‐Au‐Cl]", "values": [{"measurement": "T/C (tumor growth)", "setting": "[1]", "result": 47, "unit": "%"}, {"measurement": "Side effects", "setting": "[1]; same xenograft mice model", "result": "no severe side effects"}, {"measurement": "ki‐67 or CD31 markers", "setting": "[1]; same xenograft mice model", "result": "no decrease"}]}
{"compound": "[Ir(tpy)(dnbpy)]", "values": [{"measurement": "H‐Ras/Raf‐1 interaction", "setting": "[3]", "result": "inhibiting"}, {"measurement": "Tumor growth", "setting": "[4]", "result": "tumor growth inhibition"}]}
